In the supplement of paper PMC10307832:

Columns and labels:
Assay in all cases: relative viability (nuclei count vs DMSO), 5 days (fraction); higher = more cells survive
[1] = compound: COc1cc2ncn(-c3cc(OCc4ccccc4C(F)(F)F)c(C(N)=O)s3)c2cc1OC + O=C(CCCCCCC(=O)Nc1ccccc1)NO [Vorinostat] (partner 1 µM)
Summary of the method: (§1)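 Values are medians from duplicate plates. Each reflects relative viability, defined as the nuclei count of treated wells over that of vehicle wells. Lung cancer cell lines in 1536-well plates were pin-tool dosed one day after seeding with one drug alone or with a fixed anchor-drug dose plus five library-drug doses (not always all listed) in √10 steps, then fixed, stained and imaged at 4× after 5 days.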

[2] = compound: COc1cc2ncn(-c3cc(OCc4ccccc4C(F)(F)F)c(C(N)=O)s3)c2cc1OC + NC(=O)Nc1cc(-c2cccc(F)c2)sc1C(=O)N[C@H]1CCCNC1 [AZD7762] (partner 0.2 µM)
Summary of the method: as §1

[3] = compound: COc1cc2ncn(-c3cc(OCc4ccccc4C(F)(F)F)c(C(N)=O)s3)c2cc1OC + CC(=O)c1c(C)c2cnc(Nc3ccc(N4CCNCC4)cn3)nc2n(C2CCCC2)c1=O [Palbociclib] (partner 0.5 µM)
Summary of the method: as §1

[4] = compound: COc1cc2ncn(-c3cc(OCc4ccccc4C(F)(F)F)c(C(N)=O)s3)c2cc1OC + C[C@@H](Oc1cc(-c2cnn(C3CCNCC3)c2)cnc1N)c1c(Cl)ccc(F)c1Cl [Crizotinib] (partner 1 µM)
Summary of the method: as §1

Row | Cell Line | relative viability ([1]; first compound 0.05 µM) | relative viability ([1]; first compound 0.1581 µM) | relative viability ([1]; first compound 0.5 µM) | relative viability ([1]; first compound 1.581 µM) | relative viability ([1]; first compound 5 µM) | relative viability ([2]; first compound 0.05 µM) | relative viability ([2]; first compound 0.1581 µM) | relative viability ([2]; first compound 0.5 µM) | relative viability ([2]; first compound 1.581 µM) | relative viability ([2]; first compound 5 µM) | relative viability ([3]; first compound 0.05 µM) | relative viability ([3]; first compound 0.1581 µM) | relative viability ([3]; first compound 0.5 µM) | relative viability ([3]; first compound 1.581 µM) | relative viability ([3]; first compound 5 µM) | relative viability ([4]; first compound 0.05 µM) | relative viability ([4]; first compound 0.1581 µM) | relative viability ([4]; first compound 0.5 µM) | relative viability ([4]; first compound 1.581 µM) | relative viability ([4]; first compound 5 µM)
1 | NCI-H650 | 0.425 | 0.438 | 0.279 | 0.137 | 0.143 | 1.21 | 1.01 | 0.92 | 0.561 | 0.581 | 0.301 | 0.335 | 0.279 | 0.188 | 0.34 | 0.714 | 0.684 | 0.4 | 0.15 | 0.289
2 | NCI-H727 | 1.28 | 1.14 | 0.673 | 0.579 | 0.591 | 0.712 | 0.495 | 0.504 | 0.527 | 0.487 | 0.701 | 0.716 | 0.608 | 0.547 | 0.628 | 0.707 | 0.901 | 0.58 | 0.247 | 0.266
3 | NCI-H838 | 0.577 | 0.801 | 0.477 | 0.13 | 0.132 | 0.968 | 0.916 | 0.73 | 0.609 | 0.581 | 0.255 | 0.231 | 0.161 | 0.111 | 0.0913 | 1.02 | 0.932 | 0.492 | 0.124 | 0.111
4 | NCI-H1355 | 0.592 | 0.624 | 0.457 | 0.154 | 0.13 | 0.793 | 0.747 | 0.456 | 0.163 | 0.137 | 0.271 | 0.423 | 0.345 | 0.186 | 0.152 | 1.08 | 1.03 | 0.768 | 0.258 | 0.157
5 | NCI-H1437 | 0.717 | 0.779 | 0.367 | 0.334 | 0.326 | 1.24 | 1.09 | 0.6 | 0.198 | 0.154 | 0.3 | 0.279 | 0.253 | 0.206 | 0.192 | 1.03 | 0.812 | 0.659 | 0.164 | 0.101
6 | NCI-H1651 | 0.504 | 0.51 | 0.309 | 0.164 | 0.324 | 0.415 | 0.518 | 0.32 | 0.37 | 0.303 | 0.535 | 0.492 | 0.481 | 0.484 | 0.397 | 0.9 | 0.84 | 0.775 | 0.631 | 0.332
7 | NCI-H1666 | 0.954 | 0.998 | 0.584 | 0.561 | 0.527 | 0.84 | 0.881 | 0.8 | 0.555 | 0.483 | 0.631 | 0.637 | 0.597 | 0.414 | 0.445 | 0.917 | 0.913 | 0.606 | 0.289 | 0.326
8 | NCI-H1734 | 0.776 | 0.902 | 0.365 | 0.202 | 0.137 | 0.588 | 0.608 | 0.511 | 0.18 | 0.134 | 0.315 | 0.334 | 0.325 | 0.203 | 0.171 | 0.656 | 0.616 | 0.36 | 0.239 | 0.14
9 | NCI-H1755 | 0.781 | 0.738 | 0.631 | 0.447 | 0.354 | 0.431 | 0.525 | 0.397 | 0.373 | 0.259 | 0.452 | 0.442 | 0.429 | 0.316 | 0.328 | 0.829 | 0.828 | 0.644 | 0.389 | 0.334
10 | NCI-H1915 | 0.497 | 0.582 | 0.352 | 0.0829 | 0.0666 | 0.709 | 0.862 | 0.597 | 0.161 | 0.097 | 0.456 | 0.493 | 0.347 | 0.114 | 0.0905 | 0.916 | 0.898 | 0.639 | 0.123 | 0.102
11 | NCI-H1944 | 0.609 | 0.602 | 0.456 | 0.166 | 0.127 | 0.546 | 0.545 | 0.426 | 0.168 | 0.0968 | 0.412 | 0.373 | 0.308 | 0.205 | 0.119 | 1.32 | 1.18 | 1.1 | 0.351 | 0.113
12 | NCI-H1975 | 0.501 | 0.631 | 0.272 | 0.166 | 0.134 | 0.737 | 0.751 | 0.564 | 0.433 | 0.261 | 0.613 | 0.33 | 0.193 | 0.198 | 0.148 | 1.04 | 0.913 | 0.462 | 0.212 | 0.2
13 | NCI-H1993 | 0.725 | 0.736 | 0.384 | 0.389 | 0.348 | 0.921 | 0.814 | 0.53 | 0.418 | 0.381 | 0.512 | 0.67 | 0.561 | 0.513 | 0.431 | 0.898 | 0.877 | 0.693 | 0.58 | 0.614
14 | NCI-H2085 | 0.722 | 0.796 | 0.541 | 0.386 | 0.302 | 0.969 | 0.964 | 0.862 | 0.39 | 0.248 | 0.423 | 0.476 | 0.488 | 0.38 | 0.244 | 0.842 | 0.848 | 0.629 | 0.517 | 0.309
15 | NCI-H2087 | 0.639 | 0.573 | 0.163 | 0.0594 | 0.121 | 1.37 | 1.22 | 0.575 | 0.12 | 0.109 | 0.232 | 0.185 | 0.24 | 0.0808 | 0.106 | 0.934 | 0.793 | 0.32 | 0.18 | 0.139
16 | NCI-H2126 | 0.847 | 0.759 | 0.401 | 0.236 | 0.216 | 1.05 | 1.03 | 0.881 | 0.446 | 0.258 | 0.373 | 0.31 | 0.348 | 0.273 | 0.265 | 1.05 | 1 | 0.849 | 0.419 | 0.264
17 | NCI-H2170 | 0.834 | 0.725 | 0.386 | 0.128 | 0.125 | 0.889 | 0.765 | 0.306 | 0.146 | 0.166 | 0.401 | 0.371 | 0.212 | 0.165 | 0.148 | 1.25 | 1.15 | 0.599 | 0.268 | 0.258
18 | NCI-H2347 | 0.551 | 0.658 | 0.407 | 0.445 | 0.302 | 0.832 | 0.726 | 0.716 | 0.435 | 0.393 | 0.373 | 0.413 | 0.397 | 0.377 | 0.375 | 0.58 | 0.736 | 0.603 | 0.537 | 0.385
19 | NCI-H2405 | 1.21 | 0.676 | 0.38 | 0.386 | 0.254 | 0.793 | 0.703 | 0.446 | 0.262 | 0.263 | 0.511 | 0.508 | 0.382 | 0.343 | 0.332 | 0.84 | 0.682 | 0.595 | 0.357 | 0.463
20 | NCI-H3122 | 1 | 0.596 | 0.357 | 0.13 | 0.13 | 1.07 | 0.81 | 0.359 | 0.133 | 0.144 | 0.189 | 0.202 | 0.148 | 0.14 | 0.13 | 0.245 | 0.288 | 0.23 | 0.186 | 0.173
21 | PC-3 [JPC-3] | 0.907 | 0.82 | 0.515 | 0.464 | 0.31 | 0.833 | 0.741 | 0.597 | 0.238 | 0.252 | 0.568 | 0.541 | 0.534 | 0.435 | 0.429 | 0.987 | 1.01 | 0.778 | 0.34 | 0.27
22 | PC-14 | 0.662 | 0.655 | 0.141 | 0.0309 | 0.0197 | 0.371 | 0.405 | 0.334 | 0.113 | 0.0718 | 0.503 | 0.403 | 0.154 | 0.0334 | 0.0605 | 0.83 | 0.828 | 0.564 |  | 0.411
23 | RERF-LC-KJ | 0.696 | 0.626 | 0.33 | 0.287 | 0.345 | 1.01 | 1.59 | 0.849 | 0.761 | 0.814 | 1.03 | 1.16 | 0.71 | 0.616 | 0.46 | 0.813 | 0.887 | 0.766 |  | 0.545
